Experimental data as given in patent US20100298434A1, “NEUROPROTECTION AND PREVENTION OF DOPAMINERGIC CELL DEATH BY TARGETING NUR77 TRANSLOCATION” (priority 2009, published 2010).

Experiments:
PC12 cells [1] = assay: LDH cytotoxicity in PC12 cells; format: cell-based
Experimental: They were cultured on Primaria 6-well plates (BD Falcon, Ontario, Canada) for RT-PCR experiments and immunoblotting; on Primaria 96-wells plates for LDH cytoxicity experiments and finally on poly-L-lysine-coated circular glass coverslips for immunocytofluorescence assays. Cells were fed fresh medium every 3 days and maintained at 37° C. in a humidified 5% CO2 atmosphere. […] Control conditions were without toxin.
Briefly, media were collected and centrifuged at 800×g at 4° C. for 2 min. The cell-free supernatant (100 μl) was then used to determine LDH activity by measuring the absorbance at a wavelength of 490 nm (A490) on a microplate reader (Multiscan Ascent Microplate reader, Thermolab System, Franklin Mass.) according to the working procedures of Roche's protocol. Total cellular LDH was determined by lysing cells with 1% Triton X-100.

Nur77 mRNA = assay: 6-hydroxydopamine lesions in rats, Nur77 mRNA in situ hybridization in substantia nigra; format: in vivo; details: intracerebral 6-OHDA 12 μg/3 μl
Experimental: (§1) Fifteen male Sprague—Dawley albino rats (Charles River, Montreal, Canada) weighing 250-275 g at the beginning of the experiment were used in this study. They were housed two per cage in a temperature-controlled environment maintained under a 12-h light/dark cycle with ad libitum access to food and water. Handling of the rats was performed in accordance with the Canadian Guide for the Care and Use of Laboratory animals and all procedures were approved by the Institutional Animal Care Committee of Laval University. All efforts were made to minimize the number of animals used and their suffering. Rats were anaesthetized in an induction chamber with 4% isoflurane in 95% O2/5% CO2 before being transferred to a stereotaxic frame and maintained at 1.5-3% isoflurane. A sagittal cut exposed bregma and a hole was drilled.
Cryostat-cut brain sections (12 μm) were mounted on Superfrost slides (Fisher Scientific, Toronto, ON, Canada) and stored at −80° C. Specific [^35S]UTP-labeled complementary.
RNA (cRNA) probes were used and preparation of the Nur77 probe was performed as described previously (Beaudry et al., 2000). The antisense cRNA probe for Nur77 stems from a 2.4-kb EcoRI fragment of a full-length rat Nur77 cDNA subcloned into pBluescript SK-1 and linearized with BamHI. […]

substantia nigra neurons = assay: 6-hydroxydopamine lesions in rats, Fluoro-Jade B staining of degenerating neurons; format: in vivo; details: intracerebral 6-OHDA
Experimental: as §1
The brain sections were mounted on gelatin-coated slides (Brain Research Laboratories, Newton, Mass.) and air-dried overnight. They were dehydrated in ascending grades of ethanol, hydrated in descending grades of ethanol and finally rinsed in milliQ water. Afterwards, the sections were dipped in a 0.06% potassium permanganate solution bath for 10 min and washed in milliQ water. […] Degenerating neurons and fibers appeared green and nuclei emerged blue in fluorescence.

PC12 cells [2] = assay: TUNEL/DAPI apoptosis in PC12 cells; format: cell-based, rat; details: 6-OHDA, at 12 and 24 h
Experimental: (§2) PC12 cells were obtained from ATCC CRL 1721 (VA, USA) and were grown in phenol red-free RPMI 1640 medium supplemented with 5% fetal calf serum (FCS), 10% horse serum and gentamicin (50 μg/ml). They were cultured on Primaria 6-well plates (BD Falcon, Ontario, Canada) for RT-PCR experiments and immunoblotting; on Primaria 96-wells plates for LDH cytoxicity experiments and finally on poly-L-lysine-coated circular glass coverslips for immunocytofluorescence assays. Cells were fed fresh medium every 3 days and maintained at 37° C. in a humidified 5% CO2 atmosphere. […] Control conditions were without toxin. […] For the present study, kinetic time periods were: 0 h, 3 h, 6 h, 9 h, 12 h and 24 h. After each experiment, culture medium was harvested for cytotoxicity detection and cells were collected for RT-PCR and ICF/Fractioning (Gelinas & Martinoli 2002; Gagne et al. 2003; Gelinas et al. 2004; Chiasson et al. 2006).
PC12 cells were grown and treated on circular glass coverslips, then fixed in 4% paraformaldehyde for 1 hour at 4° C. […] Images were acquired with an Olympus IX-70 inverted microscope with a high-pressure mercury burner and necessary filter cubes (Olympus U-MNUV, U-MNIBA and U-MWIG), and were analyzed with Bio-Rad's QuantityOne software. […]

Nur77 = Nur77 subcellular distribution (nuclei-cytoplasmic fractioning, Western blot) in PC12 cells; format: cell-based, rat
Experimental: as §2
PC12 cells were grown and treated in 6-wells plates. We used a nuclear extraction kit (Active Motif, Carlsbad, Calif.) to separate cytoplasmic protein content from nuclear protein content. Briefly, cells were washed in wells with a mixture of PBS and phosphatase inhibitors, and then harvested in centrifuge tubes. Hypotonic buffer swelled cytoplasmic membrane, which an afterward mild detergent ruptured.
Centrifugation at 14,000×g pelleted the intact nuclei, and soluble material was preserved as the cytoplasmic fraction. Nuclei were the lysed with the provided lysis buffer. Protein dosage was performed with a bicinchoninic acid (BCA)-based SDS-compatible Protein Assay Kit (Pierce, Rockfort, Ill.) on each fraction of each sample.
Equal amounts of nuclei or cytoplasmic protein fractions were loaded onto a 10% polyacrylamide-SDS gel. After electrophoretic separation (180 volts, 45 min.) the polyacrylamide gels were transferred onto […] (PVDF) membranes (0.22 μm pore size, Bio-Rad) at 50 V for 2 h. The membranes were blocked with 5% non-fat powder milk for 1 h. […] Quantitative analysis was performed with the Fluor Chem SP software.

nigral TH neurons = assay: MPTP lesions in mice, stereological counts of TH-immunoreactive neurons; format: in vivo; details: Nur77 (+/+) mice, 7 i.p. injections MPTP-HCl 20 mg/kg, 14 days after last injection
Source text: Wild-type (Nur77(+/+)) male (C57BL/6, weighing 20-25 g) mice were purchased from Charles River, Canada. Nur77 knockout (Nur77(−/−)) mice were developed and graciously provided by Dr Jeff Milbrandt at the Washington University, St. Louis, Mo., USA (Lee et al., 1995). These mice are healthy and reproduce normally (Crawford et al., 1995; Lee et al., 1995). They were produced in a mixed background and have been backcrossed into the C57BL/6 strain for at least ten generations to reduce genetic background heterogeneity (Jeff Milbrandt, personal communication). We maintain a Nur77(−/−) mouse colony at the animal care facility of our research center. Young adult Nur77(−/−) male mice weighing 20-25 g were used for present experiments. All mice were housed three or four per cage in a temperature-controlled environment and maintained under a 12-h light-dark cycle with ad libitum access to food and water.
In total, 17 mice (8 Nur77 (+/+) and 9 Nur77 (−/−)) received seven intraperitoneal (i.p.) injections of MPTP-HCl (20 mg/kg free base; Sigma, St. Louis, Mo.) dissolved in NaCl 0.9%. MPTP was administered twice on the first 2 days of the experimental protocol at an interval of 12 h and once a day on 3 subsequent days (Tremblay et al. 2006; Gibrat et al., 2010). […]
The loss of DA neurons was determined by counting TH-immunoreactive cells under bright-field illumination. […]

SMILES: CC/C=C\C/C=C\C/C=C\C/C=C\C/C=C\C/C=C\CCC(=O)O [DHA, docosahexaenoic acid]
- cytotoxicity induced by 6-OHDA (PC12 cells [1]; PC12 cells, 6-OHDA 30 μM, co-incubation with DHA 10^−6 M): significantly reduced
- cytotoxicity induced by MPP+ (PC12 cells [1]; PC12 cells, MPP+ 5 mM, co-incubation with DHA 10^−6 M): significantly reduced

SMILES: NCCc1cc(O)c(O)cc1O [6-OHDA, 6-hydroxydopamine]
- start of significant rise of cellular death (LDH activity) (PC12 cells [1]; PC12 cells, 10 μM 6-OHDA): 12 h
- cell death (PC12 cells [1]; PC12 cells, 6-OHDA 30 μM, after 24 h): ≤ 70%
- earliest time of Nur77 mRNA induction in midbrain dopaminergic neurons (Nur77 mRNA): 3 h
- time at which Fluoro-Jade staining is also observed (substantia nigra neurons): 3 h
- time of maximal Fluoro-Jade staining (substantia nigra neurons): 48 h
- cells showing signs of apoptosis (co-localization of DAPI and TUNEL) (PC12 cells [2]): more than 90%
- start of Nur77 upregulation and translocation from the nucleus to the cytosol (Nur77; 6-OHDA 30 μM): 9 h

SMILES: CN1CC=C(c2ccccc2)CC1 [MPTP, 1-methyl-4-phenyl-1,2,3,6-tetrahydropyridine]
- number of nigral TH neurons (nigral TH neurons): significantly reduced

SMILES: C[n+]1ccc(-c2ccccc2)cc1 [MPP+, 1-methyl-4-phenylpyridinium ion]
- beginning of Nur77 protein translocation from the nucleus to the cytosol (Nur77; MPP+ 5 mM): 6 h

SMILES: CCC(=C/[C@H](C)C/C=C/C(C)=C/[C@@H](C)C(=O)[C@@H](C)[C@H](O)[C@@H](C)C/C(C)=C/C(=O)O)/C=C/[C@@H]1OC(=O)C=C[C@@H]1C [LMB, leptomycin B]
- PC12 cell survival (PC12 cells [1]; LMB alone): no effect
- 6-OHDA induced cell death (PC12 cells [1]; PC12 cells, co-incubation of LMB with 6-OHDA, 24 h): significant reduction
- 6-OHDA-induced translocation of Nur77 from the nucleus to the cytosol (Nur77; 6-OHDA 30 μM, co-incubation with LMB 1 nM): blocked
